Earlier results, collected in US7655753B2, “Conjugate” (PhotoBiotics Limited, priority 2001, dated 2010).
Values belong to the compound of their own block, whether it stands above or below them.

Legend:
[1] = test system: Chest wall recurrence in breast cancer; details: clinical PDT
Oral cancer = details: clinical PDT, over 5-53 months
Bladder cancer = details: clinical PDT
Barrett's mucosal cancer = details: clinical PDT
[2] = test system: Basal cell cancer of skin; details: clinical PDT, topical administration
[3] = test system: Barrett's oesophagus cancer; details: clinical PDT, systemic administration

Compound: Dihematoporphyrin ether
complete response [1]: 20% complete response,
partial response [1]: 45% partial response
complete response (Oral cancer): 87% complete response

Compound: Hematoporphyrin derivative
alive after 5 years (Bladder cancer): 30% alive after 5 years
complete response (Bladder cancer): 74% complete response,

skin photosensitivity (duration) (in vivo): about 2 weeks
Compound: Oc1cccc(-c2c3nc(c(-c4cccc(O)c4)c4ccc([nH]4)c(-c4cccc(O)c4)c4nc(c(-c5cccc(O)c5)c5ccc2[nH]5)CC4)C=C3)c1 [Foscan, meta-tetrahydroxyphenyl chlorin]

persistence in the body (leading to skin photosensitivity): weeks
Compound: porfimer sodium
conversion to normal epithelium (Barrett's mucosal cancer): 75% conversion to
tumour outcome (Barrett's mucosal cancer): tumours eliminated

Compound: NCC(=O)CCC(=O)O [ALA, 5-aminolaevulanic acid]
complete response [2]: 90% complete response
High-grade dysplasia outcome [3]: eradicated in all patients
